Source: paper PMC11123841, “Discovery and Synthesis of Hydroxy-L-Proline Blockers of the Neutral Amino Acid Transporters SLC1A4 (ASCT1) and SLC1A5 (ASCT2)” (Molecules, 2024)

Tests used:
[1] = tested on: ASCT; details: extracellular 300 µM; cited from earlier work
[2] = tested on: SLC1A4; details: concentrations up to 1 mM, oocytes expressing SLC1A4; cited from earlier work
[3] = tested on: SLC1A4; parameters: method as in PMID 14502423; details: cited from earlier work
[4] = target: T1, SLC38A2 (ATA2) (Homo sapiens, UniProt Q96QD8); test: TEVC electrogenic coupled currents in oocytes; type: cell-based; details: induced currents
T1 construct: expressed in transfected cells; host or cells: Xenopus laevis oocytes (cRNA injection)
T1 sequence (Q96QD8 1-506): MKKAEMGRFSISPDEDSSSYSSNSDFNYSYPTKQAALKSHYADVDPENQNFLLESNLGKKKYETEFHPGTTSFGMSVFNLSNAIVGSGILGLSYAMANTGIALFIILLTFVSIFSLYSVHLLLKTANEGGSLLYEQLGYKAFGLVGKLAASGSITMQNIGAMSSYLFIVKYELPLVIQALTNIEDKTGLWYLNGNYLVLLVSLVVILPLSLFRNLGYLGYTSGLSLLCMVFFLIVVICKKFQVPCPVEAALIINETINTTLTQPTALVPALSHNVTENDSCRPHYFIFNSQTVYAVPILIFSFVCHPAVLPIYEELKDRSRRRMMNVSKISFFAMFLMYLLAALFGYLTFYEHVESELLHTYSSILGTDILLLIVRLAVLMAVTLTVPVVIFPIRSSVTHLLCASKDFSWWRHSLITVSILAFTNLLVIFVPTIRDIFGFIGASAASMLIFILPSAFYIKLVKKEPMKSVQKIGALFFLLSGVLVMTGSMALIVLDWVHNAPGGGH
Method: (§1) Additionally, 4-HP applied at 1 mM was used to assess activity at the glutamate transporters SLC1A3 or SLC1A1.
(§2) BPOHP activity was evaluated against the glutamate transporters paralogs within the SLC1A gene family (SLC1A 1–3) as well as at neutral amino acid transporters that share common ligand substrates with the SLC1 family including SLC38A1,2, and 4 (ATA1, ATA2, ATA3) and heteromeric transporters SLC7A10+SLC3A2 (asc-1/4f2).
(§3) Uptake was halted by washing 3 times with 4 °C ND96 buffer. Oocytes were then lysed in 0.1% Triton X-100, and radioactivity was counted via liquid scintillation. Dose response curves were generated by fitting fractional inhibition (I) to the expression I = Imax × [inhibitor]/([inhibitor] + IC50).
Two-electrode voltage clamp (TEVC) transporter currents were recorded with a GeneClamp 500 amplifier and Digidata 1320A analog–digital interface (Molecular Devices, San Jose, CA, USA). […] Data were acquired with Axograph (v1.7.6) and LabChart (v7) and analyzed with Kaleidagraph software (v4.1) (Synergy, Reading, PA, USA). Uncoupled anion currents associated with the transport of substrate and block of SLC1A4 or SLC1A5 mediated leak conductance were recorded in the presence of Ringer with 50% substitution of NaCl by NaSCN to amplify the non-transported anion conductance. […]

[5] = target: T2, SLC1A5 (Mus musculus, UniProt P51912); test: [3H]L-Gln radiolabeled uptake competition in oocytes; type: cell-based
T2 construct: expressed in transfected cells; host or cells: Xenopus laevis oocytes (cRNA injection)
T2 sequence (P51912 1-553): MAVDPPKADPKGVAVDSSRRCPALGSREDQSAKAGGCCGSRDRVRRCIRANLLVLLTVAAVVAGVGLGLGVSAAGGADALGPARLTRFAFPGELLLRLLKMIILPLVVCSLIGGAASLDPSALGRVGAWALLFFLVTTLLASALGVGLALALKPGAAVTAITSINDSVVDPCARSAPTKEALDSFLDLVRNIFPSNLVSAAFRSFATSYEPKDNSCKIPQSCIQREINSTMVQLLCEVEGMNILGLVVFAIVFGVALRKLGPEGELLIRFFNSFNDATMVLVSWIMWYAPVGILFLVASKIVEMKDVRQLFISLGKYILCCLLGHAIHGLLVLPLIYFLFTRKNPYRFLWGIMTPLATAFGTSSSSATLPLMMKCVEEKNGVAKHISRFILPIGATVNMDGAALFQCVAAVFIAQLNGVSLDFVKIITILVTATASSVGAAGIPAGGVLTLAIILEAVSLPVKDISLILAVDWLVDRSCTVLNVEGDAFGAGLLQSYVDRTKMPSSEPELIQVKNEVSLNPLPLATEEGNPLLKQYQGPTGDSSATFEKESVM
Method: as §3
(A) SLC1A4 dose response curves for substrate activated anion currents using two-electrode voltage clamp of Xenopus lavies oocytes (−30 mV). […] (B) SLC1A5 dose response curve for substrate activated anion currents using two-electrode voltage clamp (−30 mV). […] Extracellular solutions contained 50 mM NaSCN.

[6] = target: T3, SLC1A1 (EAAT3) (Homo sapiens, UniProt P43005); test: TEVC in oocytes expressing glutamate transporter; type: cell-based; details: SLC1A1; applied at 1 mM
T3 construct: expressed in transfected cells; host or cells: Xenopus laevis oocytes (cRNA injection)
T3 sequence (P43005 1-524): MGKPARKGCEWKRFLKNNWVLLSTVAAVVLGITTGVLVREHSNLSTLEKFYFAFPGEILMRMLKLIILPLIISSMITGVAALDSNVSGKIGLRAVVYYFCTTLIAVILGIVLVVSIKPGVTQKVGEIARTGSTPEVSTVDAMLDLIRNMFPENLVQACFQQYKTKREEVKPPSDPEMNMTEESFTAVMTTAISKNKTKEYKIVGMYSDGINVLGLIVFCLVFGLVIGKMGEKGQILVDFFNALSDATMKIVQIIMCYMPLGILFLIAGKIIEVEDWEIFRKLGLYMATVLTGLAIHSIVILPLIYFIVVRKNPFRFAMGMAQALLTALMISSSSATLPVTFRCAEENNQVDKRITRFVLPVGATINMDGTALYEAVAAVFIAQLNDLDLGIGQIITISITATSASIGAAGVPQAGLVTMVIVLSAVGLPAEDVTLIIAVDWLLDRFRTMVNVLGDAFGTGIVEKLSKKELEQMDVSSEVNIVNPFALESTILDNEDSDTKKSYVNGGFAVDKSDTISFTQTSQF
Method: as §1, §2, §3
(§4) Two-electrode voltage clamp (TEVC) transporter currents were recorded with a GeneClamp 500 amplifier and Digidata 1320A analog–digital interface (Molecular Devices, San Jose, CA, USA). Electrodes (0.2–1.0 MΩ) were filled with 3M KCl and the recording chamber was grounded with an agar bridge. Data were acquired with Axograph (v1.7.6) and LabChart (v7) and analyzed with Kaleidagraph software (v4.1) (Synergy, Reading, PA, USA). Uncoupled anion currents associated with the transport of substrate and block of SLC1A4 or SLC1A5 mediated leak conductance were recorded in the presence of Ringer with 50% substitution of NaCl by NaSCN to amplify the non-transported anion conductance.
(§5) Figure SM-2 TEVC from oocytes expressing SLC1A1-3 transporters.
(§6) (1 picture or pasted object on this page, not shown here)

[7] = target: T4, SLC1A3 (EAAT1) (Homo sapiens, UniProt P43003); test: TEVC in oocytes expressing glutamate transporter; type: cell-based; details: SLC1A3; applied at 1 mM
T4 construct: expressed in transfected cells; host or cells: Xenopus laevis oocytes (cRNA injection)
Method: as §1, §2, §3, §4, §5, §6

T4 sequence (P43003 whole entry): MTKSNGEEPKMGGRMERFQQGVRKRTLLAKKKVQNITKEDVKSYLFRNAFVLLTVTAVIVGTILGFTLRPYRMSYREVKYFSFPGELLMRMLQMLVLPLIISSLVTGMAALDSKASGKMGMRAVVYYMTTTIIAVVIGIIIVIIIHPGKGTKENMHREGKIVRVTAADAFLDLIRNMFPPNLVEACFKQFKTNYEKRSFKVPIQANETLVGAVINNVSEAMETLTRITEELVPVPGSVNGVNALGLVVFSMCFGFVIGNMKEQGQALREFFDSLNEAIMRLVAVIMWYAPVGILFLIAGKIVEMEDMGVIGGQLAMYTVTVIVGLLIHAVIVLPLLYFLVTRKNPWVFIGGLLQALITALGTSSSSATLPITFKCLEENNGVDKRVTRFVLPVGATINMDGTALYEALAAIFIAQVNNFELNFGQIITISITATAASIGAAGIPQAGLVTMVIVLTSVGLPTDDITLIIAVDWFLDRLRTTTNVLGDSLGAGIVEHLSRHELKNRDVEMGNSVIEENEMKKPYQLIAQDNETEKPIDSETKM

## O=C(O)[C@@H]1CCCN1 [L-proline]
[1]
  heteroexchange release of intracellular radiolabeled ASCT substrates: capable of inducing heteroexchange release
[2]
  chloride currents: does not elicit detectable chloride currents

## O=C(O)[C@@H]1C[C@@H](O)CN1 [4-HP, trans-4-hydroxy-L-proline, reference compound]
[3]
  increase in affinity for SLC1A4 over L-proline: approximately 20 fold
[4]
  Km: 3.1 mM
[5]
  IC50: 108 µM
[6]
  TEVC current response or block: No TEVC current response or block was observed
[7]
  TEVC current response or block: No TEVC current response or block was observed
